The record followed here is patent US4296233A, “Conjugate of amino sugar-steroid hormone” (Kureha Kagaku Kogyo Kabushiki Kaisha, priority 1978, dated 1981).

Molecules are shown by their SMILES. In brackets after ≈: the same amount, converted by molar mass. Several values for one entry are separate records, joined by “and”; a condition that tells them apart may be missing. Equal values may be shown once. Read-outs that look alike come from different tables or passages of the source.

A short description of data set [1]: Solubility in a mixed solvent of 98 vol.% of water and 2 vol.% of ethanol (method of Example 1). The format is physicochemical. Particulars: for solubility: water/ethanol 98:2, organic solvent or mixture. The protocol: The conjugate is dissolved at 4.39×10^-5 mole/liter (30 mg/liter) in a mixed solvent of 98 vol.% of water and 2 vol.% of ethanol.
Solubility of dehydroepiandrosterone in the same mixed solvent measured by absorbance at 235 mμ is 0.24×10^-5 mole/liter.

The nature of data set [2]: Solubility of the conjugate in water. The settings on record: compared with conjugate at 3-position in Example 1. The class given is physicochemical.
For data set [3], the system named is antibody which is active to the ketone group at 17-position of dehydroepiandrosterone. The data set can be described thus: Competitive immunoassay with tritium-labelled dehydroepiandrosterone bound to antibody. The format is binding. Particulars: FIG. 1, curves A and B. The method, then: In order to confirm the presence of C-D complex combined to AP, the combined product was analyzed by a competitive immunoassay method described in Seikagaku Jikken Koza (Biochemical Experiment Hormones (First) Page 217 to 252 (by Nippon Seikagaku Kai) (published by Tokyo Kagaku Dojin in 1977).
Dehydroepiandrosterone labelled by tritium (^3 H) was bound to the antibody which is active to the ketone group at 17-position of dehydroepiandrosterone. The combined product or dehydroepiandrosterone was added to the system of the antibody and the labelled compound to measure the amount of free ^3 H-dehydroepiandrosterone release from the system.

The mark [4] stands for this setting: mixed solvent of 98 vol.% of water and 2 vol.% of ethanol, read-out: Solubility.

As to `C[C@]12CC[C@H](OC(=O)COC(=O)[C@H]3O[C@@H](O[C@H]4[C@@H](O)[C@@H](CO)OC(O)[C@@H]4N)[C@H](O)[C@@H](O)[C@@H]3O)CC1=CC[C@@H]1[C@@H]2CC[C@]2(C)C(=O)CC[C@@H]12` (stereo partly drawn) [Example 1, conjugate of 3β-hydroxy-5-androsten-17-one(dehydroepiandrosterone) at 3-position and 2-amino-2-deoxy-3-O-β-glucopyranurosyl-D-galactose (chondrosine) at 6-position with a binding agent of bromoacetyl bromide], the “solubility of the conjugate relative to the non-conjugate dehydroepiandrosterone” value in data set [1] (versus dehydroepiandrosterone, same mixed solvent) is “more than 18 times”. Moreover, the solubility in data set [1] (setting [4]) was 43.9 µM and 30 µg/mL.
Regarding `C[C@]12CC[C@@H]3c4ccc(O)cc4CC[C@H]3[C@@H]1CC[C@@H]2OC(=O)COC(=O)[C@H]1O[C@@H](O[C@H]2[C@@H](O)[C@@H](CO)OC(O)[C@@H]2N)[C@H](O)[C@@H](O)[C@@H]1O` (stereo partly drawn) [Example 2, conjugate of 1,3,5(10)-estratriene-3,17β-diol (estradiol) and chondrosine at 17-position with a binding agent of bromoacetyl bromide], the “solubility of the product relative to that of estradiol” value in data set [1] (versus estradiol, method of Example 1) is listed as “about 20 times”. Further, in data set [1] (setting [4]), the solubility was determined as 65 µM.
As to `C[C@]12CC[C@H]3[C@@H](CC=C4C[C@@H](O)CC[C@@]43C)[C@@H]1CC[C@@H]2OC(=O)COC(=O)[C@H]1O[C@@H](O[C@H]2[C@@H](O)[C@@H](CO)OC(O)[C@@H]2N)[C@H](O)[C@@H](O)[C@@H]1O` (mixture of isomers) [Example 3, Conjugate of dehydroepiandrosterone (hereinafter referring as to DHS) and chondrosine at 17-position with a binding agent of bromoacetyl bromide], in data set [2], the “solubility of the conjugate in water” value is listed as “substantially same with that of the conjugate at 3-position in Example 1”.
Regarding `C[C@]12CCC(OC(=O)[C@H]3OC(O)[C@H](N)[C@@H](O)[C@@H]3O)CC1=CC[C@@H]1[C@@H]2CC[C@]2(C)C(=O)CC[C@@H]12` (mixture of isomers) [Example 4, Conjugate of DHS and 2-amino-2-deoxy-α-D-glucuronic acid], the solubility in data set [1] (setting [4]) was 40.2 µM.
With `C[C@]12CC[C@H](O)CC1=CC[C@@H]1[C@@H]2CC[C@]2(C)C(=O)CC[C@@H]12` [dehydroepiandrosterone, 3β-hydroxy-5-androsten-17-one, reference compound], the solubility in data set [1] (same mixed solvent, measured by absorbance at 235 mμ, read-out: Solubility of dehydroepiandrosterone) worked out at 2.4 µM (≈ 0.692 µg/mL). Besides, the “amount of free ^3 H-dehydroepiandrosterone released / binding to the antibody” value in data set [3] is on record as “the amount of free ^3 H-dehydroepiandrosterone was increased by the addition of the combined product or dehydroepiandrosterone whereby the their binding to the antibody is found”.

As a reminder, the solubility is the dissolved amount per volume that the medium holds.
